From US10906946B2, “Thrombin inhibitors” (priority 2015, dated 2021) come the findings set out here.

Where “and” joins values, the source holds several entries; their conditions need not be identical. Identical values can stand only once. Entries after “also recorded” stand apart in the source; their conditions may differ. Peptide text beside a SMILES is read from it.

Experiment [1] deals with T1, human α-thrombin (Homo sapiens, UniProt P00734).
T1 construct: residues in the termini of the light chain; purchased Chemo-Sero-Therapeutic Research Institute (Kaketsuken, Japan), as a gift, not bought
Nature of the experiment: Thrombin amidolytic activity assay with chromogenic substrate S2238. As to conditions: for Hill slope of thrombin amidolytic inhibition: 0 min pre-incubation where stated; for IC50: IC50 of inhibition of thrombin amidolytic activity, S2238 100 μM, without pre-incubation (0 min) where stated. Type of experiment: biochemical. The protocol:
Thrombin amidolytic activity assays for all peptides were performed in 96-wells microtiter plates in 50 mM Tris buffer (pH 7.4) containing 100 mM NaCl and 1 mg/ml bovine serum albumin. […] The rates of formation of p-nitroaniline were followed by measuring the absorbance at 405 nm for 10 min with a Tecan InfinitePro M200 microplate reader from Tecan (Männedorf, Switzerland). Dose-response curves were fitted using the GraphPad Prizm software (San Diego, Calif., USA) to calculate IC50 values and Hill coefficients. To measure the inhibitory constants, different concentrations of S2238 were used and the residual velocities were determined using the Morrison's tight binding equation. Inhibition of thrombin fibrinogenolytic activity of peptides were tested by measuring absorbance at 650 nm using a Sunrise microplate reader from Tecan (Männedorf, Switzerland) as described previously [Koh C Y, et al., J Biol Chem 282: 29101-13 (2007)]. The selectivity of avathrin was examined against 13 serine proteases (FIG. 5). Effects of avathrin on the amidolytic activities of these serine proteases were determined using respective chromogenic substrates. […] Avathrin (150 μM) was incubated with thrombin (5 μM), in 50 mM Tris buffer (pH 7.4) containing 150 mM NaCl and 1 mg/ml BSA. After different incubation times, reactions were quenched with 1% TFA (pH 1.8) and loaded onto a Jupiter Proteo column (4 μm, 90 Å, 100×1.0 mm) attached to a Dionex nano-HPLC system from Thermo Fisher Scientific (Waltham, Mass., USA) and eluted using an acetonitrile gradient with 0.05% TFA and 99.95% MilliQ water as eluent A and 0.05% TFA, 19.95% MilliQ water and 80% ACN as eluent B. Masses of all peaks were measured to identify cleavage products, which were subsequently quantified by integrating the peaks and calculating the area under the curves. To measure the effect of different pre-incubation times on the thrombin inhibitory activity, amidolytic assays were performed for various incubation times (up to 36 h).

Experiment [2] has as its target T2, thrombin (Homo sapiens, UniProt P00734).
T2 construct: residues in the termini of the light chain; and in the autolysis loop and C-terminus of the heavy chain; purchased Chemo-Sero-Therapeutic Research Institute (Kaketsuken, Japan), as a gift, not bought
The experiment is described as follows: Cleavage of peptide by thrombin (RP-HPLC, ESI-MS). Type of experiment: biochemical. As to conditions: peptide incubated with thrombin (30:1); listed as K10β-avathrin. As for the experimental part:
A. Evaluation of avathrin cleavage by thrombin by HPLC chromatograms. Avathrin (150 μM) was incubated with thrombin (5 μM) for various times and the reaction mixtures were separated using RP-HPLC; the masses of the cleavage products were analyzed with ESI-MS. At 0 min (upper panel), a single peak corresponding to full length avathrin (mass 3139 Da) was identified. At 120 min (middle panel), two new peaks corresponding to N-terminal cleavage product (^1[…]^10 of SEQ ID NO: 1; mass 982 Da) and C-terminal cleavage product ([…] (SEQ ID NO: 4); mass 2176 Da) were identified in addition to avathrin peak. At 600 min (lower panel), two peaks corresponding to the N- and C-terminal cleaved products were observed while avathrin peak was not observed, indicating complete cleavage. B. Time-dependent cleavage of avathrin by thrombin. Relative percentages of avathrin, its N- and C-terminal cleavage products were quantified by calculating areas under the curve. Each data point is the mean±S.D. of at least three independent experiments. C. Effect of thrombin cleavage on inhibitory properties of avathrin. Avathrin was incubated with thrombin (0.81 nM) for up to 36 h, and assayed at different time points for its ability to inhibit thrombin amidolytic activity on the chromogenic substrate S2238. […]
Thrombin amidolytic activity assays for all peptides were performed in 96-wells microtiter plates in 50 mM Tris buffer (pH 7.4) containing 100 mM NaCl and 1 mg/ml bovine serum albumin. […] The rates of formation of p-nitroaniline were followed by measuring the absorbance at 405 nm for 10 min with a Tecan InfinitePro M200 microplate reader from Tecan (Männedorf, Switzerland). […] To measure the inhibitory constants, different concentrations of S2238 were used and the residual velocities were determined using the Morrison's tight binding equation. Inhibition of thrombin fibrinogenolytic activity of peptides were tested by measuring absorbance at 650 nm using a Sunrise microplate reader from Tecan (Männedorf, Switzerland) as described previously [Koh C Y, et al., J Biol Chem 282: 29101-13 (2007)]. […] Effects of avathrin on the amidolytic activities of these serine proteases were determined using respective chromogenic substrates. […] After different incubation times, reactions were quenched with 1% TFA (pH 1.8) and loaded onto a Jupiter Proteo column (4 μm, 90 Å, 100×1.0 mm) attached to a Dionex nano-HPLC system from Thermo Fisher Scientific (Waltham, Mass., USA) and eluted using an acetonitrile gradient with 0.05% TFA and 99.95% MilliQ water as eluent A and 0.05% TFA, 19.95% MilliQ water and 80% ACN as eluent B. Masses of all peaks were measured to identify cleavage products, which were subsequently quantified by integrating the peaks and calculating the area under the curves. […]

Experiment [3] deals with T2, thrombin. The experiment is described as follows: Inhibition of thrombin fibrinogenolytic activity (fibrinogen clotting time). Type of experiment: biochemical. As for the experimental part: Thrombin amidolytic activity assays for all peptides were performed in 96-wells microtiter plates in 50 mM Tris buffer (pH 7.4) containing 100 mM NaCl and 1 mg/ml bovine serum albumin. Typically, 100 μl of peptide and 100 μl of thrombin were pre-incubated for different durations before 100 μl of S2238 was added to the reaction wells. The rates of formation of p-nitroaniline were followed by measuring the absorbance at 405 nm for 10 min with a Tecan InfinitePro M200 microplate reader from Tecan (Männedorf, Switzerland). Dose-response curves were fitted using the GraphPad Prizm software (San Diego, Calif., USA) to calculate IC50 values and Hill coefficients. To measure the inhibitory constants, different concentrations of S2238 were used and the residual velocities were determined using the Morrison's tight binding equation. Inhibition of thrombin fibrinogenolytic activity of peptides were tested by measuring absorbance at 650 nm using a Sunrise microplate reader from Tecan (Männedorf, Switzerland) as described previously [Koh C Y, et al., J Biol Chem 282: 29101-13 (2007)]. The selectivity of avathrin was examined against 13 serine proteases (FIG. 5). Effects of avathrin on the amidolytic activities of these serine proteases were determined using respective chromogenic substrates. Cleavage of avathrin by thrombin. Avathrin (150 μM) was incubated with thrombin (5 μM), in 50 mM Tris buffer (pH 7.4) containing 150 mM NaCl and 1 mg/ml BSA. After different incubation times, reactions were quenched with 1% TFA (pH 1.8) and loaded onto a Jupiter Proteo column (4 μm, 90 Å, 100×1.0 mm) attached to a Dionex nano-HPLC system from Thermo Fisher Scientific (Waltham, Mass., USA) and eluted using an acetonitrile gradient with 0.05% TFA and 99.95% MilliQ water as eluent A and 0.05% TFA, 19.95% MilliQ water and 80% ACN as eluent B. Masses of all peaks were measured to identify cleavage products, which were subsequently quantified by integrating the peaks and calculating the area under the curves. To measure the effect of different pre-incubation times on the thrombin inhibitory activity, amidolytic assays were performed for various incubation times (up to 36 h).

The subject of experiment [4] is FeCl3-induced carotid artery thrombosis. The experiment is described as follows: Ferric chloride-induced carotid artery thrombosis model. Type of experiment: in vivo, C57BL/6 male mice. To be noted: mice, 10% FeCl3. As for the experimental part:
All animal experiments were carried out under protocol 041/12 approved by Institutional Animal Care and Use Committee, National University of Singapore. The ferric chloride induced carotid artery thrombosis model was performed as described previously [Eckly A, et al., J Thromb Haemost 9: 779-89 (2011)] with minor modifications. Typically, C57BL/6 male mice (9-11 weeks old, 24.5-27.5 g) were anesthetized with an intraperitoneal injection of ketamine (75 mg/kg) and medetomidine (1 mg/kg). 100 μL of different doses of avathrin were injected into the mice via tail vein. The right carotid artery was dissected using blunt dissection and a vascular injury was caused applying filter paper of 2 mm×2 mm saturated with FeCl3 on top of the carotid artery. After 3 min, the filter paper was removed and the vessel was washed with sterile normal saline. To determine the time to occlusion, a miniature Doppler flow probe (Transonic Systems Inc., Ithaca, N.Y., USA) was placed around the carotid artery and blood flow was recorded using a Transonic® flow meter from ADInstruments (Dunedin, New Zealand). The maximal time for monitoring the blood flow after injury was 30 min. Mice were euthanized by cervical dislocation immediately after the completion of the experiment and prior to recovery from anesthesia.

As usually defined, the IC50 is the midpoint of a concentration-inhibition curve. Read a high IC50 as weaker potency in that assay. For orientation: Ki means a dissociation constant, usually derived from enzyme kinetics or from competition with a known ligand. The low end stands for a stronger hold on the target, the high end for a looser hold on the target.

`CC[C@H](C)[C@H](NC(=O)[C@H](CCCNC(=N)N)NC(=O)[C@@H]1CCCN1C(=O)[C@@H](NC(=O)[C@H](C)NC(=O)[C@@H](NC(=O)[C@H](CCC(N)=O)NC(=O)[C@H](Cc1c[nH]cn1)NC(=O)CNC(=O)CNC(=O)[C@@H](N)CO)[C@@H](C)O)C(C)C)C(=O)N[C@@H](CO)C(=O)N[C@@H](CCCCN)C(=O)N[C@@H](CCC(N)=O)C(=O)NCC(=O)N[C@@H](CC(C)C)C(=O)NCC(=O)NCC(=O)N[C@@H](CC(=O)O)C(=O)N[C@@H](Cc1ccccc1)C(=O)N[C@@H](CCC(=O)O)C(=O)N[C@@H](CCC(=O)O)C(=O)N[C@H](C(=O)N1CCC[C@H]1C(=O)N[C@@H](CO)C(=O)N[C@@H](CC(=O)O)C(=O)N[C@@H](CCC(=O)O)C(=O)N[C@H](C(=O)N[C@H](C(=O)N[C@@H](CCC(=O)O)C(=O)O)[C@@H](C)CC)[C@@H](C)CC)[C@@H](C)CC` [Peptide K10R] (H-SGGHQTAVPRISKQGLGGDFEEIPSDEIIE-OH; N-terminus and C-terminus assumed): in experiment [1], the “fold gain in activity compared with avathrin” value came out at 5 fold and the “Hill slope of thrombin amidolytic inhibition” value is reported as 1.10±0.01. The compound also had an IC50 in experiment [1] (thrombin 0.81 nM) of 1.15 ± 0.45 nM. Further, the “Hill Slope” value in experiment [1] (Table 2) was determined as 1.10 ± 0.01. The “time to complete cleavage by thrombin” value in experiment [2] is 3 h.
As to `CC[C@H](C)[C@H](NC(=O)[C@H](CCCCN)NC(=O)[C@@H]1CCCN1C(=O)[C@@H](NC(=O)[C@H](C)NC(=O)[C@@H](NC(=O)[C@@H](N)CCC(N)=O)[C@@H](C)O)C(C)C)C(=O)N[C@@H](CO)C(=O)N[C@@H](CCCCN)C(=O)N[C@@H](CCC(N)=O)C(=O)NCC(=O)N[C@@H](CC(C)C)C(=O)NCC(=O)NCC(=O)N[C@@H](CC(=O)O)C(=O)N[C@@H](Cc1ccccc1)C(=O)N[C@@H](CCC(=O)O)C(=O)N[C@@H](CCC(=O)O)C(=O)N[C@H](C(=O)N1CCC[C@H]1C(=O)N[C@@H](CO)C(=O)N[C@@H](CC(=O)O)C(=O)N[C@@H](CCC(=O)O)C(=O)N[C@H](C(=O)N[C@H](C(=O)N[C@@H](CCC(=O)O)C(=O)O)[C@@H](C)CC)[C@@H](C)CC)[C@@H](C)CC` [QT26] (H-QTAVPKISKQGLGGDFEEIPSDEIIE-OH; N-terminus and C-terminus assumed), in experiment [1], the “Hill slope of thrombin amidolytic inhibition” value is listed as 0.88±0.03. Moreover, the “Hill slope of thrombin amidolytic inhibition, 10 min pre-incubation” value in experiment [1] (10 min pre-incubation) came to 0.92±0.03. In addition, half-maximal inhibition in experiment [1] (thrombin 0.81 nM) (IC50) required 8.94 ± 0.64 nM. Moreover, the “Hill Slope” value in experiment [1] (Table 2) is reported as 0.88 ± 0.03. The Ki in experiment [1] (inhibitory constant Ki for thrombin, thrombin 0.81 nM, various S2238 concentrations) was 0.7603 ± 0.00091 nM. Moreover, the “effect on fibrinogen clotting time / thrombin fibrinogenolytic activity” value in experiment [3] is “inhibited”.
For GLGGDFEEIPSDEIIE [GL16], the “effect on thrombin amidolytic activity” value in experiment [1] (3-300 μM) is on record as “did not inhibit amidolytic activity even at 300 μM; also recorded: unable to inhibit thrombin amidolytic activity”. Also, in experiment [1] (Table 2), the “Hill Slope” value was “N. I”, the “IC50(nM)” value is listed as “N. I.*” and the “Ki(nM)” value is “N. I”. In experiment [1] (high concentrations, up to 300 μM), the “activation of thrombin amidolytic activity” value is 5-10%. In addition, the “effect on fibrinogen clotting time / thrombin fibrinogenolytic activity” value in experiment [3] is listed as “inhibited the fibrinogenolytic activity; also recorded: prolonged fibrinogen clotting times in a dose dependent manner”.
Regarding “hirulog-1: peptidyl bivalent thrombin inhibitor used as comparator drug”, the “time to occlusion (TTO)” value was 9.70 ± 3.15 min and 9.76 ± 3.15 min in experiment [4] (3 mg/kg intravenously); 15.22 ± 3.39 min and 15.23 ± 3.39 min in experiment [4] (10 mg/kg intravenously).
